From PubChem BioAssay AID248 (DTP/NCI, 2004)
“And” between values parts separate entries of the source, which are not always exact repeats. Equal values may be shown once. Inconclusive results and toxic doses are left out. Rule as the data show it: active = T/C of 150% or more; inactive = T/C below 125%.

Test system: L1210 leukemia ip in BDF1 mice, survival T/C
Experiment: NCI In Vivo Anticancer Drug Screen. Data for tumor model L1210 Leukemia (intraperitoneal) in B6D2F1 (BDF1) mice
Details: endpoint: mean survival time, higher = longer survival
How it was run: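 Survival endpoint. Drug-treated group vs vehicle group, expressed as T divided by C. Tumor passaged by transplantation.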

[1] = dose: 100.0 mg/kg/injection, schedule: Q01DX001 (ip), vehicle: saline
[2] = dose: 100.0 mg/kg/injection, schedule: Q04DX002 (ip), vehicle: Klucel (hydroxypropylcellulose) (HPC)
[3] = dose: 200.0 mg/kg/injection, schedule: Q04DX002 (ip), vehicle: Klucel (hydroxypropylcellulose) (HPC)
[4] = dose: 400.0 mg/kg/injection, schedule: Q04DX002 (ip), vehicle: Klucel (hydroxypropylcellulose) (HPC)
[5] = dose: 100.0 mg/kg/injection, schedule: Q04DX003 (ip), vehicle: saline with Tween-80
[6] = dose: 200.0 mg/kg/injection, schedule: Q04DX003 (ip), vehicle: saline with Tween-80
[7] = dose: 100.0 mg/kg/injection, schedule: Q04DX002 (ip), vehicle: saline with Tween-80
[8] = dose: 200.0 mg/kg/injection, schedule: Q04DX002 (ip), vehicle: saline with Tween-80
[9] = dose: 400.0 mg/kg/injection, schedule: Q04DX002 (ip), vehicle: saline with Tween-80
[10] = dose: 200.0 mg/kg/injection, schedule: Q01DX001 (ip), vehicle: saline
[11] = dose: 400.0 mg/kg/injection, schedule: Q01DX001 (ip), vehicle: saline

Measured: T/C

OCCOCCN1CCN(CC/C=C2\c3ccccc3Sc3ccc(C(F)(F)F)cc32)CC1
inactive: dose: 1.56 mg/kg/injection, schedule: Q01DX009 (ip), vehicle: saline 104 % of control | dose: 1.56 mg/kg/injection, schedule: Q04DX003 (ip), vehicle: saline 100 % of control | dose: 2.5 mg/kg/injection, schedule: Q01DX009 (ip), vehicle: saline 98 % of control | dose: 3.12 mg/kg/injection, schedule: Q01DX009 (ip), vehicle: saline 111 % of control | dose: 3.12 mg/kg/injection, schedule: Q04DX003 (ip), vehicle: saline 94 % of control | dose: 5.0 mg/kg/injection, schedule: Q01DX009 (ip), vehicle: saline 108 % of control | dose: 6.25 mg/kg/injection, schedule: Q01DX009 (ip), vehicle: saline 106 % of control | dose: 6.25 mg/kg/injection, schedule: Q04DX003 (ip), vehicle: saline 101 % of control | dose: 6.9 mg/kg/injection, schedule: Q01DX015 (ip), vehicle: saline 115 % of control | dose: 8.0 mg/kg/injection, schedule: Q04DX003 (ip), vehicle: saline with Tween-80 116 % of control | dose: 9.2 mg/kg/injection, schedule: Q01DX009 (ip), vehicle: saline 103 % of control | dose: 10.0 mg/kg/injection, schedule: Q01DX009 (ip), vehicle: saline 117 % of control | dose: 10.3 mg/kg/injection, schedule: Q01DX015 (ip), vehicle: saline 105 % of control | dose: 14.0 mg/kg/injection, schedule: Q01DX009 (ip), vehicle: saline 117 % of control | dose: 20.0 mg/kg/injection, schedule: Q01DX009 (ip), vehicle: saline 117 % of control | dose: 21.0 mg/kg/injection, schedule: Q01DX009 (ip), vehicle: saline 88 % of control | dose: 25.0 mg/kg/injection, schedule: Q01DX001 (ip), vehicle: saline 116 % of control | dose: 40.0 mg/kg/injection, schedule: Q01DX009 (ip), vehicle: saline 96 % of control | dose: 50.0 mg/kg/injection, schedule: Q01DX001 (ip), vehicle: saline 105 % of control and 114 % of control | [1] 108 % of control | dose: 100.0 mg/kg/injection, schedule: Q04DX003 (ip), vehicle: saline 123 % of control

O=C(c1ccc(Cl)cc1)c1nc2ccccc2[nH]1
inactive: [2] 95 % of control | [3] 95 % of control | [4] 103 % of control

CN(C)CCC(CN=C(N)N)c1cccc2ccccc12 (stereo unspecified)
inactive: dose: 12.5 mg/kg/injection, schedule: Q01DX009 (ip), vehicle: saline 100 % of control | dose: 25.0 mg/kg/injection, schedule: Q01DX009 (ip), vehicle: saline 100 % of control | dose: 25.0 mg/kg/injection, schedule: Q04DX002 (ip), vehicle: saline 93 % of control | dose: 50.0 mg/kg/injection, schedule: Q01DX009 (ip), vehicle: saline 101 % of control | dose: 50.0 mg/kg/injection, schedule: Q04DX002 (ip), vehicle: saline 97 % of control

CC(O)C12OC1CC1C3CC4OC45CC(O)CCC5(C)C3CCC12C (stereo unspecified)
inactive: dose: 100.0 mg/kg/injection, schedule: Q01DX001 (sc), vehicle: steriod suspending solution 106 % of control | dose: 200.0 mg/kg/injection, schedule: Q01DX001 (sc), vehicle: steriod suspending solution 103 % of control | dose: 400.0 mg/kg/injection, schedule: Q01DX001 (sc), vehicle: steriod suspending solution 109 % of control

Sc1ccc(Cl)cc1.[Pb]
inactive: dose: 25.0 mg/kg/injection, schedule: Q01DX009 (ip), vehicle: gum acacia 94 % of control | dose: 25.0 mg/kg/injection, schedule: Q04DX002 (ip), vehicle: gum acacia 99 % of control | dose: 50.0 mg/kg/injection, schedule: Q01DX009 (ip), vehicle: gum acacia 94 % of control | dose: 50.0 mg/kg/injection, schedule: Q04DX002 (ip), vehicle: gum acacia 99 % of control | dose: 100.0 mg/kg/injection, schedule: Q04DX002 (ip), vehicle: gum acacia 96 % of control and 91 % of control | dose: 200.0 mg/kg/injection, schedule: Q04DX002 (ip), vehicle: gum acacia 102 % of control | dose: 400.0 mg/kg/injection, schedule: Q04DX002 (ip), vehicle: gum acacia 109 % of control

CC(=O)Nc1ccc(NC(C)=O)cc1
inactive: [5] 95 % of control | [6] 91 % of control | dose: 400.0 mg/kg/injection, schedule: Q04DX003 (ip), vehicle: saline with Tween-80 95 % of control

c1ccc2c(CC3=NCCN3)cccc2c1
inactive: dose: 12.5 mg/kg/injection, schedule: Q01DX009 (ip), vehicle: saline with Tween-80 96 % of control | dose: 25.0 mg/kg/injection, schedule: Q01DX009 (ip), vehicle: saline with Tween-80 103 % of control

O=C(Nc1ccccc1)Nc1ccccc1Cl
inactive: [2] 110 % of control | [3] 93 % of control | [4] 107 % of control

Oc1ccc(Cl)c2c1CCC2
inactive: dose: 50.0 mg/kg/injection, schedule: Q01DX009 (ip), vehicle: saline with Tween-80 110 % of control | dose: 100.0 mg/kg/injection, schedule: Q01DX009 (ip), vehicle: saline with Tween-80 102 % of control | [5] 101 % of control | dose: 200.0 mg/kg/injection, schedule: Q01DX009 (ip), vehicle: saline with Tween-80 104 % of control | [6] 101 % of control

O=[N+]([O-])c1ccc(S(=O)[O-])cc1.O=[N+]([O-])c1ccc(S(=O)[O-])cc1.[Zn+2]
inactive: dose: 75.0 mg/kg/injection, schedule: Q01DX001 (ip), vehicle: saline 102 % of control | dose: 150.0 mg/kg/injection, schedule: Q01DX001 (ip), vehicle: saline 110 % of control

Cc1c(O)c2ccc(Cl)cc2n(C)c1=O
inactive: [7] 100 % of control | [8] 94 % of control | [9] 103 % of control

CS(=O)(=O)c1cccc(N)c1
inactive: [1] 102 % of control | [10] 91 % of control | [11] 98 % of control

Cc1cc(N(CCOS(C)(=O)=O)CCOS(C)(=O)=O)ccc1C=Nc1ccc(-c2csc(-c3ccccc3)n2)c(Cl)c1
inactive: dose: 20.0 mg/kg/injection, schedule: Q04DX003 (ip), vehicle: Klucel (hydroxypropylcellulose) (HPC) 121 % of control | dose: 60.0 mg/kg/injection, schedule: Q04DX003 (ip), vehicle: Klucel (hydroxypropylcellulose) (HPC) 122 % of control | dose: 80.0 mg/kg/injection, schedule: Q04DX003 (ip), vehicle: Klucel (hydroxypropylcellulose) (HPC) 120 % of control | dose: 100.0 mg/kg/injection, schedule: Q04DX003 (ip), vehicle: Klucel (hydroxypropylcellulose) (HPC) 122 % of control

CCCS(=O)(=O)N(CC)CC
inactive: [7] 97 % of control | [8] 101 % of control | [9] 87 % of control

CC(C)C1(NC(=O)C2C=C3c4cccc5[nH]cc(c45)CC3N(C)C2)OC2(O)C3CCCN3C(=O)C(Cc3ccccc3)N2C1=O (stereo unspecified) (tested in a mixture with another compound)
inactive: [1] 107 % of control | [10] 102 % of control | [11] 100 % of control

O=[N+]([O-])c1ccc(N/N=C(\c2ccccc2)c2ccc(O)cc2O)c([N+](=O)[O-])c1
inactive: dose: 100.0 mg/kg/injection, schedule: Q01DX001 (ip), vehicle: other 91 % of control | dose: 100.0 mg/kg/injection, schedule: Q04DX003 (ip), vehicle: other 95 % of control | dose: 200.0 mg/kg/injection, schedule: Q01DX001 (ip), vehicle: other 91 % of control | dose: 200.0 mg/kg/injection, schedule: Q04DX003 (ip), vehicle: other 96 % of control | dose: 400.0 mg/kg/injection, schedule: Q01DX001 (ip), vehicle: other 95 % of control | dose: 400.0 mg/kg/injection, schedule: Q04DX003 (ip), vehicle: other 96 % of control
